Tests used:
[1] = system: myocardium; assay: Myocardial BOLD MRI response to PaCO2 modulation while PaO2 is held constant; format: in vivo, canines
Procedure: In Examples 1-6, all imaging studies were performed in instrumented animals with a Doppler flow probe attached to the LAD coronary arteries for measurement of flow changes in response to CO2 and clinical dose of adenosine. In these studies, CO2 and O2 delivery were tightly controlled using […]. […] At each CO2 level, free-breathing and cardiac gated blood-oxygen-level-dependent (BOLD) acquisitions were prescribed at mid diastole and Doppler flow velocities were measured. Similar acquisitions were also performed with block sequences of CO2 levels; that is, CO2 levels were alternated between 40 and 50 mmHg and BOLD images (and corresponding Doppler flow velocities) were acquired at each CO2 level to assess the reproducibility of the signal changes associated with different CO2 levels. Each delivery of CO2 using […] was made in conjunction with arterial blood draw to determine the arterial blood CO2 levels. […] We assessed the difference between myocardial blood-oxygen-level dependent (BOLD) response under hypercarbia and normocarbia conditions in canines. The BOLD signal intensity is proportional to oxygen saturation. […] The lower panel depicts the difference as obtained by subtracting the signal under rest from that under stress. […] We further assessed the myocardial BOLD response to stepwise CO2 increase (ramp-up) in canines. […] To further evaluate vascular reactivity and coronary response to CO2, we measured the myocardial BOLD signal in response to block increases of CO2 in canines. Specifically, the myocardial BOLD signal was measured as the amount of CO2 administered to the canine subjects alternated between 40 mmHg CO2 and 50 mmHg CO2. […] The myocardium is supplied with blood by the left anterior descending (LAD) artery, the right coronary artery (RCA) and the left circumflex (LCX) artery. We measured the blood flow through each of these arteries in response to increasing CO2 supply. As shown in FIG. 6 and summarized in FIG. 7, in each of the three LAD, RCA and LCX arteries, there is a direct correlation between the amount of CO2 administered and the signal intensity; as the amount of administered CO2 increases, the signal intensity, signaling the blood flow, in each of the three arteries increases. Further, as shown in FIG. 6 and summarized in FIG. 8, there was no response to CO2 modulation in control territories such as blood, skeletal muscle or air. […] Vascular reactivity of three canines that were administered with adenosine was compared with the vascular reactivity of canines that were administered with CO2. As shown in FIGS. 10A and 10B, the hyperemic adenosine stress BOLD response was approximately 12% compared with 16% in response to CO2.

[2] = system: left anterior descending (LAD) artery; assay: Doppler flow in the left anterior descending artery in response to PaCO2 modulation; format: in vivo, canines; details: increasing amount of administered CO2, PaO2 held constant
Procedure: (§1) In Examples 1-6, all imaging studies were performed in instrumented animals with a Doppler flow probe attached to the LAD coronary arteries for measurement of flow changes in response to CO2 and clinical dose of adenosine. In these studies, CO2 and O2 delivery were tightly controlled using Respiract. CO2 values were incremented in steps of 10 mmHg starting from 30 mmHg to 60 mmHg and were ramped down in decrements of 10 mmHg. At each CO2 level, free-breathing and cardiac gated blood-oxygen-level-dependent (BOLD) acquisitions were prescribed at mid diastole and Doppler flow velocities were measured. Similar acquisitions were also performed with block sequences of CO2 levels; that is, CO2 levels were alternated between 40 and 50 mmHg and BOLD images (and corresponding Doppler flow velocities) were acquired at each CO2 level to assess the reproducibility of the signal changes associated with different CO2 levels. Each delivery of CO2 using Respiract was made in conjunction with arterial blood draw to determine the arterial blood CO2 levels.
The Doppler flow was measured in the left anterior descending (LAD) artery. […] The relative change in coronary flow velocity was directly proportional to the amount of CO2 administered.

[3] = system: myocardium; assay: Myocardial BOLD response to PaCO2 in human volunteers; format: in vivo, humans; details: early human data, pCO2 change of 10 mmHg, from 35 mmHg to 45 mmHg
[4] = system: myocardial blood flow (MBF); assay: 13N-ammonia PET myocardial blood flow, canines without coronary stenosis; format: in vivo; details: for mean MBF: absence of stenosis, hypercapnia ~25 mmHg increase in PaCO2, standard dose adenosine; for Global MBF normalized by rate-pressure-product: intact canines, in ml/min/g per mmHg·bpm
Procedure: We investigated whether a physiologically tolerable hypercapnia stimulus ( 25-mmHg increase in PaCO2) can increase myocardial blood flow (MBF) to that observed with adenosine in three groups of canines: (i) without coronary stenosis; (ii) subjected to non-flow limiting coronary stenosis; and (iii) following pre-administration of caffeine. These studies were conducted by prospectively and independently controlling PaCO2 and combining it with ^[…]-ammonia Positron Emission Tomography (PET) measurements, and the extent of effect on MBF due to hypercapnia was compared to adenosine. The objectives of these studies were twofold: to investigate the effects of PaCO2 on MBF while minimizing contributions from factors that can unintentionally reduce or inaccurately report on sensitivity of PaCO2 on MBF; and to assess whether an independent, precise and rapid establishment of physiologically tolerable level of hypercapnia provides equivalent hyperemia as adenosine, a commonly used pharmacological stimulus for cardiac stress testing with and without pre-administration of caffeine. To address these aims, a clinically relevant animal model was used along with validated strategies for (i) precisely and rapidly establishing desired levels of PaCO2, while holding PaO2 constant; (ii) quantifying MBF in vivo; and (iii) image analysis to derive MBF values across the different coronary supply territories. We compared our findings to the effects of standard dose of adenosine in the same animal models with and without coronary stenosis to quantify MBF and flow deficit regions under peak tolerable PaCO2. To determine whether MBF response to PaCO2 overlaps the same mechanistic path as adenosine, we quantified MBF under hypercapnia and adenosine following caffeine administration. Studies were conducted as described in Yang, H-J et al., J. Nucl. Med. 58: 953-960 (2017), which is hereby incorporated by reference in its entirety. […] FIG. 13 is a table summarizing the mean arterial CO2, O2 and hemodynamic variables of interest in Group Intact. FIG. 14A-14D show the mean global MBF and MPR response to hypercapnia in relation to adenosine. Global MBF under adenosine and hypercapnia were both higher than at rest (p<0.05, for both) and were not different from one another (p=0.33). […] Similar observations were evident for regional MBF and MPR with hypercapnia and adenosine. The observed range of MBF at rest (0.44 to 1.93 ml/min/g) and adenosine (0.47 to 5.10 ml/min/g) and range of MPR under adenosine (1.20 to 4.57) across the animals is consistent with previous reports (Kuhle, W. G. et al., Circulation 86:1004-1017 (1992)).

[5] = system: myocardial blood flow (MBF); assay: 13N-ammonia PET myocardial blood flow and perfusion defect, canines with LAD coronary stenosis; format: in vivo; details: for regional MBF versus rest: all territories (LAD, LCx, RCA); for regional MBF versus rest / MBF increase in the LAD territory: p<0.05; for MBF increase in the LAD territory: compared with LCx and RCA territories
Procedure: We investigated whether a physiologically tolerable hypercapnia stimulus ( 25-mmHg increase in PaCO2) can increase myocardial blood flow (MBF) to that observed with adenosine in three groups of canines: (i) without coronary stenosis; (ii) subjected to non-flow limiting coronary stenosis; and (iii) following pre-administration of caffeine. These studies were conducted by prospectively and independently controlling PaCO2 and combining it with ^[…]-ammonia Positron Emission Tomography (PET) measurements, and the extent of effect on MBF due to hypercapnia was compared to adenosine. The objectives of these studies were twofold: to investigate the effects of PaCO2 on MBF while minimizing contributions from factors that can unintentionally reduce or inaccurately report on sensitivity of PaCO2 on MBF; and to assess whether an independent, precise and rapid establishment of physiologically tolerable level of hypercapnia provides equivalent hyperemia as adenosine, a commonly used pharmacological stimulus for cardiac stress testing with and without pre-administration of caffeine. To address these aims, a clinically relevant animal model was used along with validated strategies for (i) precisely and rapidly establishing desired levels of PaCO2, while holding PaO2 constant; (ii) quantifying MBF in vivo; and (iii) image analysis to derive MBF values across the different coronary supply territories. We compared our findings to the effects of standard dose of adenosine in the same animal models with and without coronary stenosis to quantify MBF and flow deficit regions under peak tolerable PaCO2. To determine whether MBF response to PaCO2 overlaps the same mechanistic path as adenosine, we quantified MBF under hypercapnia and adenosine following caffeine administration. Studies were conducted as described in Yang, H-J et al., J. Nucl. Med. 58: 953-960 (2017), which is hereby incorporated by reference in its entirety. […] FIGS. 16A, 16B, 16E show the mean regional MBF in LAD, left circumflex artery (LCx) and right coronary artery (RCA) supply territories at rest, hypercapnia and adenosine. MBF values were not different at rest among the different supply territories (p>0.4, for all). […] MBF under hypercapnia was not different between the LCx and RCA territories (hypercapnia: p=0.21); the same was true under adenosine (p=0.50). For each myocardial supply territory, MBF under hypercapnia and adenosine were not different (p=1.00, for all). […] MPR under hypercapnia was not different between the LCx and RCA territories (hypercapnia: p=0.59); the same was true under adenosine (p=0.34). For each myocardial supply territory, MPR under hypercapnia and adenosine were not different (p>0.5 for all). […] Perfusion defect volumes and visual scoring under hypercapnia vs. adenosine were determined. TRP obtained under hypercapnia and adenosine were not different: 25±19% (hypercapnia) vs. 27±15% (adenosine); p=0.12. Direct comparison of TRP within the same subjects under hypercapnia and adenosine were highly correlated (R=0.85, p<0.05) and were in good agreement (bias=2%). Similar trends were observed from visual scoring analysis. No difference between the scores from hypercapnia and adenosine was observed from a paired sampled Wilcoxon signed rank test (p=0.26). Visual scores between hypercapnia and adenosine were concordant with most segments falling onto the diagonal of the scoring matrix (FIG. 18).

[6] = system: myocardial blood flow (MBF); assay: 13N-ammonia PET myocardial blood flow following pre-administration of caffeine; format: in vivo, canines; details: for MBF response relative to rest: following caffeine administration
Procedure: These studies were conducted by prospectively and independently controlling PaCO2 and combining it with ^13N-ammonia Positron Emission Tomography (PET) measurements, and the extent of effect on MBF due to hypercapnia was compared to adenosine.
The objectives of these studies were twofold: to investigate the effects of PaCO2 on MBF while minimizing contributions from factors that can unintentionally reduce or inaccurately report on sensitivity of PaCO2 on MBF; and to assess whether an independent, precise and rapid establishment of physiologically tolerable level of hypercapnia provides equivalent hyperemia as adenosine, a commonly used pharmacological stimulus for cardiac stress testing with and without pre-administration of caffeine. To address these aims, a clinically relevant animal model was used along with validated strategies for (i) precisely and rapidly establishing desired levels of PaCO2, while holding PaO2 constant; (ii) quantifying MBF in vivo; and (iii) image analysis to derive MBF values across the different coronary supply territories. […] To determine whether MBF response to PaCO2 overlaps the same mechanistic path as adenosine, we quantified MBF under hypercapnia and adenosine following caffeine administration. Studies were conducted as described in Yang, H-J et al., J. Nucl. Med. 58: 953-960 (2017), which is hereby incorporated by reference in its entirety.

[7] = system: LAD coronary arteries; assay: Epicardial flow enhancement, Carbogen against clinical dose of adenosine; format: in vivo, dogs; details: Carbogen with ETCO2 reaching 48-50 mm Hg
Procedure: as §1
In detail, the color images (lower panel of FIG. 1) are color-coded to the signal intensities of grayscale images (above). The darker colors (blue/black) represent territories of baseline myocardial oxygenation and the brighter regions represent those regions that are hyperemic. […]

| SMILES | BOLD signal intensity ([1]; block increase from 40 mmHg CO2 to 50 mmHg CO2, canines) | BOLD signal intensity ([1]; hypercarbia (60 mm Hg) vs normocarbia (30 mmHg), canines) | signal intensity, signaling the blood flow, in LAD, RCA and LCX arteries ([1]; increasing amount of administered CO2) | BOLD signal intensity ([1]; stepwise CO2 increase (ramp-up), canines) | Doppler flow in LAD artery [2] | hyperemic response (BOLD) [3] | mean MBF [4] [mL/min/g] | Global MBF normalized by rate-pressure-product [4] | total reduction in perfusion volume (TRP, % LV) between stress and rest [5] [%] | regional MBF versus rest [5] | MBF increase in the LAD territory [5] | MBF response relative to rest [6] | epicardial flow enhancement response [7] | hyperemic BOLD response ([1]; canines, mean, adenosine stress in three canines) | global MPR ([6]; under caffeine, p<0.05) | resting MBF normalized by rate-pressure-product ([6]; post-administration of caffeine (1.5×10^−5 pre-administration, p=0.03)) |
| --- | --- | --- | --- | --- | --- | --- | --- | --- | --- | --- | --- | --- | --- | --- | --- | --- |
| O=C=O [CO2, carbon dioxide] | increase in BOLD signal intensity | increase in BOLD signal intensity | increases | increases | increases | approximately 11% | 2.1 ± 0.9 | 1.26×10^−5±0.56×10^−5 | 25±19 | increased | significantly lower than in the LCx and RCA territories | able to induce myocardial hyperemia | – | – | – | – |
| Nc1ncnc2c1ncn2[C@@H]1O[C@H](CO)[C@@H](O)[C@H]1O [adenosine, reference compound] | – | – | – | – | – | – | 2.2 ± 1.1 | 1.16×10^−5±0.80×10^−5 | 27±15 | increased | significantly lower than in the LCx and RCA territories | no change in MBF | about 20% | approximately 12% | lower than under hypercapnia | – |
| Cn1c(=O)c2c(ncn2C)n(C)c1=O [caffeine] | – | – | – | – | – | – | – | – | – | – | – | – | – | – | – | 1.0×10^−5 |

From patent US12076421B2, “Assessment of coronary heart disease with carbon dioxide” (priority 2011, dated 2024)
